Measured values from EP0218400A1, “Assay methods for chemotherapeutic agents” (DAMON BIOTECH, INC., priority 1985, dated 1987).

Experiments:
LOX Melanoma cells = settings: i.v.; Adriamycin 6, BCNU 20, CY 100, 5-Fu 60 mg/kg; survival during 3 months of observation; nude mice; cited from earlier work
Original P388 cells = assay: In vivo growth of encapsulated original P388 lymphoma cells in nude mice
Protocol: (§1) In the experiments that follow, the drugs and other agents tested were administered to the host animal by injection at the various times called for in the protocol being tested. At various periods after treatment, the mice were killed by cervical dislocation. The peritoneal cavity of each mouse was washed with PBS or medium and floating microcapsules were aspirated using a large bore plastic Pasteur pipette. Microcapsules were transferred to 15 ml tubes and washed 3 to 4 times with PBS to remove host peritoneal cells. The washed microcapsules were aspirated into 1 ml serological pipettes, allowed to sediment, and the volume of packed microcapsules was determined. Microcapsules were then transferred to a glas dounce homogenizer (7 ml volume) and disrupted with 3 strokes of an A-tolerance plumger. Cells suspensions were filtered through nylon mesh to remove the disrupted membranes. The suspensions containing tumor cells were centrifuged and the pellet was resuspended in 0.25 to 0.5 ml of complete medium. After mixing equal volumes of cell suspension and trypan blue, viable cell counts were determined using a hemocytometer.
(§2) The number of tumor cells per 1 ml of packed microcapsules was determined as follows: a = ? where b = total number of tumor cells in the suspension, and c = total volume of microcapsules used for the preparation of this suspension.
(§3) By comparing the number of tumor cells in 1 ml of microcapsules derived from non-treated and drug-treated mice, the percent inhibition of tumor cell growth was calculated: [formula] where ac = number of tumor cells from the non-treated control microcapsules, and ae = number of tumor cells from the drug treated microcapsules.
(§4) Since drug-resistance is one of the most important causes of failure in chemotherapy, it is crucial that a predictive assay be able to distinguish between effective and non-effective drugs for particular tumors. […] One day later the mice received by i.v. administration Adriamycin (6 mg/kg), Vinblastin (1 mg/kg) or Cyclophosphamide (100 mg/kg). Five days after administration some of the mice were sacrificed, the microcapsules were recovered and the numbers of tumor cells inside the capsules were determined. The remaining mice received a second administration and the microcapsules were recovered from the remaining mice 3 days afterwards. The results are shown in Table 7 and correlate well with the known characteristics of P388 cell line and its variant.

human Melanoma LOX cells = assay: In vivo susceptibility of encapsulated LOX melanoma cells in nude mice
Protocol: as §1, §2, §3
In this series of experiments, cells of a fourth human cancer type, Melanoma LOX cells, were used. LOX cells have recently been proposed as the model for experimental treatment at the NCI Development Therapeutics Program. Following i.p. inoculation of the suspension of LOX Melanoma cells into nude mice, various drugs were administered i.v. and survival of the treated mice was determined (Schoemaker et al., Proceeding American Association for Cancer Research, 26, 1302, 1985) (mice transplanted with the non-encapsulated tumor cells were considered tumor-free if they survived during 3 months of observation). In parallel experiments encapsulated LOX Melanoma cells were transferred into nude mice and drugs were inoculated i.v. 1, 5 and 9 days at the dose and schedule utilized by the Dr. Shoemaker's procedure.

[1] = test system: MOLT-4 human lymphoma cells; assay: In vivo sensitivity of encapsulated MOLT-4 cells in nude mice, NCI schedule; settings: Adriamycin 6 mg/kg, 15 days after transplantation
Protocol: as §1, §2, §3
In the next experiment various drugs were administered in vivo according to schedules and doses typically used for screening antitumor effects of the drugs at the National Cancer Institute, Developmental Therapeutics program.
MOLT-4 human lymphoma cells were encapsulated and transplanted into peritoneum of nude mice. Doses of various drugs were applied i.v. at 1, 5 and 9 days after tumor cell transplantation.

[2] = test system: human colon adenocarcinoma (HT-29) cells; assay: In vivo growth of encapsulated HT-29 cells in C57BL/6 mice; settings: for inhibition at 20 mg/kg: Mus musculus; for No. of cells per capsule / Total No. of tumor cells: 4 days
Protocol: as §1, §2, §3
A second human cancer cell line was also used to further analyze in vivo effects of different drugs on the growth of tumors. Encapsulated human colon adenocarcinoma (HT-29) cells were again transplanted into C57BL/6 mice and various drugs were administered after 3 days either by intravenous or by intraperitoneal injection. Animals were sacrificed after 4 days and number of cells per capsule were counted to calculate inhibition rates for the various treatment procedures. […] In fact, 5-FU is a preferred chemotherapeutic agent for patients with gastrointestinal malignancies.

P388 Resistant Cells = assay: In vivo growth of encapsulated adriamycin-resistant P388 lymphoma cells in nude mice
Protocol: as §1, §2, §3, §4

MOLT-4 lymphoma cells = assay: In vivo inhibition of encapsulated Molt-4 lymphoma growth in C57BL/6 mice; parameters: species or system human
Protocol: as §1, §2, §3
MOLT-4 lymphoma cells were also used in an in vivo assay. As before, the MOLT-4 cells were encapsulated and transplanted i.p. into C57BL/6 mice. On day 1 following the transplantation of the encapsulated cells, the mice were treated i.v. intravenous (i.v.) with BCNU, adriamycin or cyclophosphamide (CY). This approach allowed the testing of cyclophosphamide (CY) which is inefficient in vitro because it must be metabolized to obtain an active cytotoxic derivative. Ten days after transplantation, the encapsulated cells were retrieved and the tumor cells contained therein were counted. […]

[3] = test system: human lung carcinoma A549 cells; assay: In vivo susceptibility of encapsulated A549 cells; settings: i.v. days 2, 5, 9; for No. of tumor cells per 1 ml of capsules / percent Inhibition: Adriamycin 6, BCNU 20, CY 100 mg/kg
Protocol: as §1, §2, §3
The sensitivity of human lung carcinoma A549 cells to the drugs was assessed 12 and 14 days after transplantation of encapsulated tumor cells. The treatments were applied i.v. 2, 5 and 9 days after microcapsule transplantation (Table 5).

[4] = 5 + 3 days after treatment (3 days after second administration), Adriamycin 6, Vinblastin 1, Cyclophosphamide 100 mg/kg i.v.
[5] = 5 days after treatment, i.v. one day after inoculation, Adriamycin 6, Vinblastin 1, Cyclophosphamide 100 mg/kg
[6] = i.p. 3 days after transplantation, 5-Fu 150 mg/kg, CY 250 mg/kg, Adriamycin 20 mg/kg
[7] = i.v. 20 mg/kg 3 days after transplantation
[8] = i.v. on day 1, Adriamycin 10 mg/kg, BCNU 100 mg/kg, CY 200 mg/kg, capsules retrieved ten days after transplantation

For `COc1cccc2c1C(=O)c1c(O)c3c(c(O)c1C2=O)C[C@@](O)(C(=O)CO)C[C@@H]3O[C@H]1C[C@H](N)[C@H](O)[C@H](C)O1` [Adriamycin], the “% survived mice transplanted with nonencapsulated tumor cells” value (LOX Melanoma cells) is listed as 33%, the “% Inhibition” value (Original P388 cells; [4]) is listed as 92% and the No. cells/ml (Original P388 cells; [4]) is listed as 4 x 10^6. For the same compound, the “% Inhibition” value (Original P388 cells; [5]) was 64%, the No. cells/ml (Original P388 cells; [5]) was 8 x 10^6 and the “sensitivity of encapsulated LOX cells to the treatment (in words)” value (human Melanoma LOX cells; i.v. days 1, 5, 9) was “most sensitive”. The “No. of viable tumor cells per 1 ml. of capsules” value (human Melanoma LOX cells; i.v. days 1, 5, 9, Adriamycin 6, BCNU 20, CY 100, 5-Fu 60 mg/kg) was 6 x 10^5, the “inhibition of tumor cell proliferation (in words)” value ([1]; 5-FU 60 mg/kg i.v. days 1, 5, 9) was “dramatic inhibition of tumor cell proliferation” and the inhibition at 6 mg/kg ([1]; Mus musculus, MOLT-4, iv, 360 h, i.v. days 1, 5, 9, Cyclophosphamide 100 mg/kg, 5-Fu 60 mg/kg, nude mice) was 95%. For the same compound, the “No of viable tumor cells per 1 ml of capsules” value ([1]; i.v. days 1, 5, 9, Cyclophosphamide 100 mg/kg, 5-Fu 60 mg/kg, nude mice) was 2.7 x 10^6, the inhibition at 20 mg/kg ([2]; HT-29, ip) was 45% and the inhibition at 20 mg/kg ([2]; HT-29, iv) was 50%. The “No. of cells per capsule” value [2, 6] was 1.1 x 10^4, the “Total No. of tumor cells” value [2, 6] was 5.8 x 10^5 and the “No. of cells per capsule” value [2, 7] was 1 x 10^4. The “Total No. of tumor cells” value [2, 7] was 1.2 x 10^6, the No. cells/ml (P388 Resistant Cells; [4]) was 32 x 10^6 and the No. cells/ml (P388 Resistant Cells; [5]) was 18 x 10^6. For the same compound, the “inhibiting the growth of the drug-resistant variant (in words)” value (P388 Resistant Cells; Adriamycin 6 mg/kg, Vinblastin 1 mg/kg i.v.) was “Neither Adriamycin nor Vinblastin in the doses administered was effective”, the inhibition at 10 mg/kg (MOLT-4 lymphoma cells; Mus musculus, MOLT-4, iv, i.v. on day 1, Adriamycin 10 mg/kg, BCNU 100 mg/kg, CY 200 mg/kg, capsules retrieved ten days after transplantation) was 91.3% and the “reduction of the number of viable tumor cells in the capsules (in words)” value (MOLT-4 lymphoma cells; i.v. on day 1, ten days after transplantation) was “more effective than BCNU”. The “No. of cells per capsule” value (MOLT-4 lymphoma cells; [8]) was 237, the “Total No. of tumor cells” value (MOLT-4 lymphoma cells; [8]) was 8 x 10^4 and the “No. of tumor cells per 1 ml of capsules” value ([3]; 12 days after transplantation) was 9.0 x 10^5. For the same compound, the “percent Inhibition” value ([3]; 12 days after transplantation) was 85%, the “No. of tumor cells per 1 ml of capsules” value ([3]; 14 days after transplantation) was 13.5 x 10^5 and the “percent Inhibition” value ([3]; 14 days after transplantation) was 84%. For the same compound, the “reduction of the numbers of tumor cells (in words)” value [3] was “more efficient in this respect than CY”.
